Measured values from US9062077B2, “Benzopyranobenzothiazinones and their use as fungicides, antibiotics and antitumor agents” (Leibniz-Institut fuer Naturstoff-Forschung und …, priority 2011, dated 2015).

Columns and labels:
Format in all cases: cell-based
[1] = system: K-562 human leukemia cell lines; assay: antiproliferative assay, K-562; conditions: K562, read-out: GI50, inhibition of proliferation of K-562 human leukemia cell lines
Description: (§1) HeLa cells were used for the cytotoxic assay, HUVEC and K-562 cells were taken for the antiproliferative assay. The assays were conducted with phaeofungin C as described previously (Krauth et al., Bioorg. Med. Chem. 2010, 18, 1816-1821; Abdou et al., Phytochemistry 2010, 71, 110-116). Dose-response curves and IC50 values were then plotted and estimated, respectively.

[2] = system: HUVEC; assay: antiproliferative assay, HUVEC; conditions: Homo sapiens, read-out: GI50, inhibition of proliferation of HUVEC
Description: as §1

[3] = cytotoxic assay, HeLa cells; conditions: human, read-out: IC50, cytotoxic effects against HeLa cells
Description: as §1

GI50 [1]: 2.4 µM
SMILES: Cc1cc(O)c(O)c(Oc2cc(C)c3c4c(c(=O)oc3c2O)Nc2c(O)cc(C)cc2S4)c1 [Phaeofungin C]
GI50 [2]: 7.5 µM | IC50 [3]: 10 µM
